Results from ChEMBL document CHEMBL1208682, “New quinoline derivatives: synthesis and investigation of antibacterial and antituberculosis properties” (2010).
≈ marks a conversion by molar mass, not a printed value.

System: Mycobacterium tuberculosis
Test: Antituberculosis activity against multi drug-resistant Mycobacterium tuberculosis after 7 days using resazurin dye by broth microdilution assay
Assay type: functional
Details: 168 h

**Q.** `Oc1cc(F)ccc1/C=N/Nc1cc(C(F)(F)F)nc2c(C(F)(F)F)cccc12` was tested. Which MIC did it give?
**A.** Its MIC is > 50 µM.

**Q.** For `FC(F)C(F)(F)Oc1cccc(/C=N/Nc2cc(C(F)(F)F)nc3c(C(F)(F)F)cccc23)c1`, which MIC is on record?
**A.** Its MIC is 25 µM (≈ 12.5 µg/mL).

**Q.** Which MIC does the source give for `COc1ccc(/C=N/Nc2cc(C(F)(F)F)nc3c(C(F)(F)F)cccc23)cc1O` here?
**A.** Its MIC is 12.5 µM (≈ 5.37 µg/mL).

**Q.** Which MIC does the source give for `COc1ccc(/C=N/Nc2cc(C(F)(F)F)nc3c(C(F)(F)F)cccc23)c(F)c1` here?
**A.** Its MIC is 6.25 µM (≈ 2.7 µg/mL).

**Q.** For `FC(F)(F)c1cc(N/N=C/c2cccs2)c2cccc(C(F)(F)F)c2n1`, which MIC is on record?
**A.** The MIC was > 50 µM.

**Q.** For `FC(F)(F)c1cc(N/N=C/c2cccnc2)c2cccc(C(F)(F)F)c2n1`, which MIC is on record?
**A.** The MIC was > 50 µM.

**Q.** For `FC(F)(F)c1cc(N/N=C/C2CCCCC2)c2cccc(C(F)(F)F)c2n1`, which MIC is on record?
**A.** The MIC was 6.25 µM (≈ 2.43 µg/mL).

**Q.** `FC(F)(F)Oc1cccc(/C=N/Nc2cc(C(F)(F)F)nc3c(C(F)(F)F)cccc23)c1` was tested. Which MIC did it give?
**A.** Its MIC is 12.5 µM (≈ 5.84 µg/mL).

**Q.** With `CCCCCCC/C=N/Nc1cc(C(F)(F)F)nc2c(C(F)(F)F)cccc12` as the molecule, how does the MIC read?
**A.** The MIC was 6.25 µM (≈ 2.53 µg/mL).

**Q.** With `FC(F)(F)c1cc(N/N=C/c2cocc2Br)c2cccc(C(F)(F)F)c2n1` as the molecule, how does the MIC read?
**A.** The MIC was > 50 µM.

**Q.** How did the MIC turn out when `FC(F)(F)c1cc(N/N=C/c2c[nH]cn2)c2cccc(C(F)(F)F)c2n1` was run?
**A.** Its MIC is 6.25 µM (≈ 2.33 µg/mL).

**Q.** For `Cn1cc(Cl)c(/C=N/Nc2cc(C(F)(F)F)nc3c(C(F)(F)F)cccc23)n1`, which MIC is on record?
**A.** Its MIC is 6.25 µM (≈ 2.64 µg/mL).

**Q.** How did the MIC turn out when `FC(F)(F)c1cc(N/N=C/c2ccc3c(c2)CCO3)c2cccc(C(F)(F)F)c2n1` was run?
**A.** The MIC was 12.5 µM (≈ 5.32 µg/mL).

**Q.** For `Cn1cccc1/C=N/Nc1cc(C(F)(F)F)nc2c(C(F)(F)F)cccc12`, which MIC is on record?
**A.** Its MIC is 25 µM (≈ 9.66 µg/mL).

**Q.** For `FC(F)(F)c1cc(N/N=C/c2ccc3nonc3c2)c2cccc(C(F)(F)F)c2n1`, which MIC is on record?
**A.** The MIC was 12.5 µM (≈ 5.32 µg/mL).

**Q.** How did the MIC turn out when `Cn1nnc2cc(/C=N/Nc3cc(C(F)(F)F)nc4c(C(F)(F)F)cccc34)ccc21` was run?
**A.** Its MIC is 25 µM (≈ 11 µg/mL).

**Q.** `Cc1cccc2c(/C=N/Nc3cc(C(F)(F)F)nc4c(C(F)(F)F)cccc34)c[nH]c12` was tested. Which MIC did it give?
**A.** Its MIC is 12.5 µM (≈ 5.45 µg/mL).

**Q.** `CC(=O)OCc1ccc(/C=N/Nc2cc(C(F)(F)F)nc3c(C(F)(F)F)cccc23)o1` was tested. Which MIC did it give?
**A.** Its MIC is > 50 µM.

**Q.** How did the MIC turn out when `Cc1nc[nH]c1/C=N/Nc1cc(C(F)(F)F)nc2c(C(F)(F)F)cccc12` was run?
**A.** Its MIC is 6.25 µM (≈ 2.42 µg/mL).

**Q.** With `COc1ccc2[nH]cc(/C=N/Nc3cc(C(F)(F)F)nc4c(C(F)(F)F)cccc34)c2c1` as the molecule, how does the MIC read?
**A.** The MIC was > 50 µM.

**Q.** Which MIC does the source give for `O=C(NNc1cc(C(F)(F)F)nc2c(C(F)(F)F)cccc12)Nc1ccc(F)cc1` here?
**A.** Its MIC is 12.5 µM (≈ 5.4 µg/mL).

**Q.** Which MIC does the source give for `N#Cc1cccc(NC(=O)NNc2cc(C(F)(F)F)nc3c(C(F)(F)F)cccc23)c1` here?
**A.** The MIC was > 50 µM.

**Q.** How did the MIC turn out when `COc1ccccc1NC(=O)NNc1cc(C(F)(F)F)nc2c(C(F)(F)F)cccc12` was run?
**A.** The MIC was 12.5 µM (≈ 5.55 µg/mL).

**Q.** Which MIC does the source give for `Cc1cc(C)cc(NC(=O)NNc2cc(C(F)(F)F)nc3c(C(F)(F)F)cccc23)c1` here?
**A.** Its MIC is 6.25 µM (≈ 2.76 µg/mL).

**Q.** `CCCCCNC(=O)NNc1cc(C(F)(F)F)nc2c(C(F)(F)F)cccc12` was tested. Which MIC did it give?
**A.** Its MIC is > 50 µM.

**Q.** For `Fc1ccccc1NC(=S)NNc1cc(C(F)(F)F)nc2c(C(F)(F)F)cccc12`, which MIC is on record?
**A.** The MIC was > 50 µM.

**Q.** With `COCCNC(=S)NNc1cc(C(F)(F)F)nc2c(C(F)(F)F)cccc12` as the molecule, how does the MIC read?
**A.** The MIC was 25 µM (≈ 10.3 µg/mL).

**Q.** For `NNC(=O)c1ccncc1` [ISONIAZID], which MIC is on record?
**A.** The MIC was 12.5 µM (≈ 1.71 µg/mL).

**Q.** How did the MIC turn out when `CO[C@H]1/C=C/O[C@@]2(C)Oc3c(C)c(O)c4c(O)c(c(/C=N/N5CCN(C)CC5)c(O)c4c3C2=O)NC(=O)/C(C)=C\C=C\[C@H](C)[C@H](O)[C@@H](C)[C@@H](O)[C@@H](C)[C@H](OC(C)=O)[C@@H]1C` [RIFAMPIN] was run?
**A.** The MIC was 25 µM (≈ 20.6 µg/mL).
